Reference: patent US12344879B2, “Transgenic bacteria with expanded amino acid usage and nucleic acid molecules for use in the same” (BOARD OF REGENTS, THE UNIVERSITY OF TEXAS SYSTEM, priority 2015, dated 2025)
“And” between values parts separate entries of the source, which are not always exact repeats. Equal values may be shown once.

Legend:
[1] = system: E. coli dihydrofolate reductase (DHFR) position 39; assay: Selenocysteine incorporation into DHFR P39X by intact mass spectrometry; set-up: species or system E. coli RTΔA.2; details: for serine incorporation in DHFR: mass spectrometry; for selenocysteine incorporation efficiency in DHFR: peak areas of the mass spectrum
Text: To further enhance the efficiency of selenocysteine incorporation, a number of steps were taken to improve the levels of Sec-tRNA^Sec relative to Ser-tRNA^Sec, including increasing the level of SelA, decreasing the gene dose of tRNA^SecUx, and co-expressing a phosphoseryl-tRNA^Sec kinase (see Example 2 below). […] In order to further validate selenocysteine incorporation, the Pseudomonas aeruginosa metalloprotein azurin was also expressed with its essential cysteine (C112) replaced by selenocysteine and the human selenoprotein cellular glutathione peroxidase (GPx-1) (FIGS. 6a-6e and 8a-8b). For azurin, this chemical change had previously proven possible only through expressed protein ligation,^22 the essential cysteine could now be biologically replaced with selenocysteine with good efficiency as measured by mass spectrometry of the intact protein.
RTΔA.2 transformants containing pDHFR-P39X-AU and pRSF-eSelAK were cultured ON in LB medium containing 100 μg·mL^−1 ampicillin, 50 μg·mL^−1 kanamycin and 1 μM Na2SeO3. Overnight cultures were diluted 1/500 in a final volume of 2 L LB medium containing 50 μg·mL^−1 ampicillin, 25 μg·mL^−1 kanamycin and 5 μM Na2SeO3 and incubated with agitation for 24 hours at 37° C. Cells were harvested by centrifugation at 8000×g for 10 min and resuspended in 20 mL of wash buffer (100 mM Tris, 150 mM NaCl, 1 mM EDTA at pH 8.0) with protease inhibitor cocktail (cOmplete, mini EDTA free, Roche) and lysozyme at 1 mg·mL^−1. Following a 20 min incubation at 4° C. cells were lysed by sonication (Model 500, Fisher Scientific) and clarified by three times by centrifugation at 35000×g for 30 min. Lysate was passed through a 0.2 µm filter and seleno-DHFR recovered using Strep-Tactin affinity chromatography following the manufacturer's instructions (GE Healthcare). Eluate was concentrated to 3 mL and dialyzed against 50 mM NH4Ac pH 6.5 prior to the isolation of seleno-DHFR by size exclusion FPLC (ÄKTA, GE Healthcare). Seleno-DHFR was produced using tRNA^SecUx with a yield of 68 μg·L^−1 and 100% incorporation efficiency. Seleno-DHFR was produced using tRNA^UTu with a yield of 131 μg·L^−1 and 38.1% incorporation efficiency. DHFR containing serine at position 39 was produced with a yield of 225 μg·L^−1.
Intact protein samples were analyzed using methods described previously (Ellefson et al., 2014). Azurin, DHFR and GPx-1 samples were buffer exchanged into LC-MS grade water using 10 kDa molecular weight cutoff filters. […] UVPD mass spectra were also deconvoluted using Xtract and then analyzed using ProsightPC 3.0. […] Incorporation efficiencies were calculated by dividing the area of the modified protein peak by the summed areas of the unmodified protein peak and the modified protein peak. […]

[2] = system: E. coli formate dehydrogenase H (FdhH); assay: Benzyl viologen assay; format: cell-based, E. coli DHΔabcF; details: FdhH U140TAG or U140S reporter, co-expressed with SelA, anaerobic
Method: The tRNA^Sec variant containing the G7-C66:U49-G65:C50-U64 (SEQ ID NO: 18) antideterminant sequence was designated tRNA^SecUx and was compared with the previously designed chimera (tRNA^UTu) and with a tRNA^Sec derivative designed to have an antideterminant region that should tightly bind EF-Tu (tRNA^UG; FIG. 2a). […] The hybrid tRNA^UTu incorporated selenocysteine and could grow on 75 μg·ml^−1. […] To further confirm tRNA^SecUx incorporated selenocysteine in response to amber stop codons, a standard colorimetric assay was employed based on the activity of the endogenous E. coli selenoprotein formate dehydrogenase H (FdhH) (FIG. 2b).
E. coli DH10B cells containing pRSFDuet-1 and pcat-pheS were used as a positive control. DHΔabcF cells harboring p15A-fdhF U140S and pRSF-UX-eSelA, and p15A-fdhF U140X and pRSF-UX-ΔSelA were used as controls for selenocysteine dependent formate dehydrogenase activity. Transformants were grown overnight at 37° C. in LB medium supplemented with 12.5 μg·mL^−1 tetracycline and 50 μg·mL^−1 kanamycin. Overnight cultures were diluted 1/20 in a final volume of 2 ml and incubated for three hours. Cultures were normalized to OD600=0.5 and 5 μl aliquots were dotted on LB agar plates containing 3.75 μg·mL^−1 tetracycline, 12.5 μg·mL^−1 kanamycin, 5 mM sodium formate, 10 μM Na2MoO4, 1 μM Na2SeO3 and 20 μg·mL^−1 L-cysteine. Plates were incubated at 37° C. for 3 h under aerobic conditions and then transferred to anaerobic conditions at 37° C. for 60 h. Upon removal from the anaerobic chamber, plates were immediately overlaid with agar containing 1 mg·mL^−1 benzyl viologen, 250 mM sodium formate and 25 mM KH2PO4 at pH 7.0. Plates were photographed within 1 h of overlaying.

Substance | serine incorporation in DHFR [1] | selenocysteine incorporation efficiency in DHFR [1] | FdhH activity (reduction of benzyl viologen) [2]
tRNA^SecUx: Evolved E. coli tRNA^Sec variant with the G7-C66:U49-G65:C50-U64 antideterminant sequence and CUA anticodon | no detectable background | ~100% | produced active FdhH
tRNA^UTu (GGAAGATGTGGCCGAGCGGTTGAAGGCACCGGT; expressed or natural sequence) | 62% | 38% and 38.1% | produced active FdhH
